Test results taken from ChEMBL document CHEMBL4680205, “Multifunctional 6-fluoro-3-[3-(pyrrolidin-1-yl)propyl]-1,2-benzoxazoles targeting behavioral and psychological symptoms of dementia (BPSD)” (Eur J Med Chem, 2020).

Assays:
[1] = Psychoactive effect in ip dosed CD-1 mouse assessed as catalepsy effect measured after 30 to 120 mins by bar test; type: ADME, organism-based; settings: in vivo, time 30-120 min
[2] = Sedative activity in ip dosed CD-1 mouse assessed as effect spontaneous locomotor activity measured at 5 mins interval for 120 mins; type: ADME, organism-based; settings: in vivo, 2 h
[3] = Sedative activity in ip dosed Swiss albino mouse assessed as effect spontaneous locomotor activity measured during 2 to 6 mins of test; type: ADME, organism-based; settings: in vivo, time 2-6 min
Mus musculus [4] = species: Mus musculus; experiment: animal or person; settings: CD-1, ip, 2 h, read-out: MED
Mus musculus [5] = species: Mus musculus; experiment: animal or person; settings: CD-1, ip, 2 h, read-out: MED; remark: listed apart in the source
Mus musculus [6] = species: Mus musculus; experiment: animal or person; settings: Swiss, ip, 0.1 h, read-out: MED
[7] = mouse, in vivo, ip, 0.5 h
[8] = molecular target: T1, 5-hydroxytryptamine receptor 2C (Homo sapiens, UniProt P28335); experiment: Antagonist activity at recombinant human 5HT2C receptor expressed in HEK293 cells assessed as inhibition of serotonin-induced inositol phosphate accumulation measured after 30 mins by HTRF assay; type: cell-based; settings: hek293, 0.5 h
T1 sequence (P28335 whole entry): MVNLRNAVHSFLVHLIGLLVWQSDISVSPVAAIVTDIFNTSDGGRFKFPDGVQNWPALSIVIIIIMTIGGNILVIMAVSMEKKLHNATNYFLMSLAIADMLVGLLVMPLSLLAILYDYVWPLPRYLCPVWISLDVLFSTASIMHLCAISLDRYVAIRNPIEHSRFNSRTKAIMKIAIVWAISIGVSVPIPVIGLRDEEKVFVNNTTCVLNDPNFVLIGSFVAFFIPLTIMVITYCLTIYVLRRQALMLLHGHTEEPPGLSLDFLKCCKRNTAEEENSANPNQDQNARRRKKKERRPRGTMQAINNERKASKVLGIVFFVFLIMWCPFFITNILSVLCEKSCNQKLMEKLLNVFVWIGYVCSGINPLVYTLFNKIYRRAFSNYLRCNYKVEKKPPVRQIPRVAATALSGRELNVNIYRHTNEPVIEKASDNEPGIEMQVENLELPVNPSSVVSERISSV

[9] = molecular target: 5-hydroxytryptamine receptor 2A (Homo sapiens, UniProt P28223); type: cell membranes, CHO-K1, Membrane
5-hydroxytryptamine receptor 2A, sequence (P28223 whole entry): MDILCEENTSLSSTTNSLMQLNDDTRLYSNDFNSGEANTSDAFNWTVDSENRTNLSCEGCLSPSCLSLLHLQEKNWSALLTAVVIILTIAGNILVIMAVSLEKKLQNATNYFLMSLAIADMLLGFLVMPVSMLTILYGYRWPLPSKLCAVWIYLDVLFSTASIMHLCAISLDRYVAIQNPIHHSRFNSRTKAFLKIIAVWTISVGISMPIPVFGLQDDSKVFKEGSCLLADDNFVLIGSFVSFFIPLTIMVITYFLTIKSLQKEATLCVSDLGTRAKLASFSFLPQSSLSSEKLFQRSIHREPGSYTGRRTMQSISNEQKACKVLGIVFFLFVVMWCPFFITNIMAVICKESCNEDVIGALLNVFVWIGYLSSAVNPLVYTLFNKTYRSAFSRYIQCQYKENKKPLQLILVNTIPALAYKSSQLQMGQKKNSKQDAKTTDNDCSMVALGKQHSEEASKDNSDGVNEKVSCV

[10] = molecular target: T2, 5-hydroxytryptamine receptor 7 (Homo sapiens, UniProt P34969); type: cell membranes, CHO-K1, Membrane
T2 sequence (P34969 whole entry): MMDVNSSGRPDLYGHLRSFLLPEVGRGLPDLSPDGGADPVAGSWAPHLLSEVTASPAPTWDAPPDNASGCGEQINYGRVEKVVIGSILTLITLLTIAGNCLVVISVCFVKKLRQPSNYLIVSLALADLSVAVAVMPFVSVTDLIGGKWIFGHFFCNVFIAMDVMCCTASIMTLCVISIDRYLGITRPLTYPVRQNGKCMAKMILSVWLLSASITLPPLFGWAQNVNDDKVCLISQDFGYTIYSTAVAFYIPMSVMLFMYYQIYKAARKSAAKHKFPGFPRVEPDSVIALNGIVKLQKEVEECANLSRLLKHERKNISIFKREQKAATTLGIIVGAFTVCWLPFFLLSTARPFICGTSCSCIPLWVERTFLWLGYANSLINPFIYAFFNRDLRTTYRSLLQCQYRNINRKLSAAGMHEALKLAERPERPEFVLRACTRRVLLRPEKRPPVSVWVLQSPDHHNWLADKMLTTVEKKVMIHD

[11] = molecular target: T2, 5-hydroxytryptamine receptor 7; settings: CHO-K1, filed as antagonist, time 1.0 hrs
[12] = molecular target: D(2) dopamine receptor (Homo sapiens) (UniProt P14416); settings: CHO-K1, filed as antagonist, time 15-31 min
D(2) dopamine receptor (Homo sapiens), sequence (P14416 whole entry): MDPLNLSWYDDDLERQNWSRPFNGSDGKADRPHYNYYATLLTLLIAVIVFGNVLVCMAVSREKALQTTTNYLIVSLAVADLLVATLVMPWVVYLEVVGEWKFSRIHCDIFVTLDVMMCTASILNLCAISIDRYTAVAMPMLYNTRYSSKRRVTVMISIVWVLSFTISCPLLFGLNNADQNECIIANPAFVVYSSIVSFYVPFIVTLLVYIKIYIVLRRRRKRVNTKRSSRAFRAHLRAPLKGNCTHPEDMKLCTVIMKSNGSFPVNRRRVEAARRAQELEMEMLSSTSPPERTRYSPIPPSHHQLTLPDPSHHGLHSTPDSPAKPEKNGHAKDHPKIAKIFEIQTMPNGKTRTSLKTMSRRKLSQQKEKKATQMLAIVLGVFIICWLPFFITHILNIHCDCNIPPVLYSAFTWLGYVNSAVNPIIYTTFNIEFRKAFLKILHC

[13] = molecular target: T3, Alpha-2C adrenergic receptor (Homo sapiens, UniProt P18825); experiment: Antagonist activity at recombinant human adrenergic receptor alpha2c expressed in CHO-K1 cells assessed inhibition of epinephrine-induced cAMP accumulation measured after 10 mins by HTRF assay; type: cell-based; settings: cho-k1, 10 min
T3 sequence (P18825 whole entry): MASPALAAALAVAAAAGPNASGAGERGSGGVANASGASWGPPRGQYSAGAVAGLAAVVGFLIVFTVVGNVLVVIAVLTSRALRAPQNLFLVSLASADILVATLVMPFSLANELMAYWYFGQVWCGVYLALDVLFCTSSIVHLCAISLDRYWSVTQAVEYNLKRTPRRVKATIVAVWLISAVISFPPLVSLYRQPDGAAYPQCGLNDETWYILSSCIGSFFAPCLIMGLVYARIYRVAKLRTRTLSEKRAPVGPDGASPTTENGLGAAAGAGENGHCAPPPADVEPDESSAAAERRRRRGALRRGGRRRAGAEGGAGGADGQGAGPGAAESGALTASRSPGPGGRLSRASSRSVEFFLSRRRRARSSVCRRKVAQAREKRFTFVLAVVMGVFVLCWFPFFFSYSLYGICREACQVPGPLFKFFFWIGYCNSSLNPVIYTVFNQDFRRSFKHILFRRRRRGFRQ

For `OCCOCCN1CCN(C2=Nc3ccccc3Sc3ccccc32)CC1` [QUETIAPINE], the MED [1] was 30 mg/kg, the MED [2] was 10 mg/kg and the MED [3] was 10 mg/kg. For the same molecule, the minimal effective dose (Mus musculus [4]) was 5 mg/kg, the minimal effective dose (Mus musculus [5]) was 10 mg/kg and the minimal effective dose (Mus musculus [6]) was 10 mg/kg.

Molecule `O=C1CCc2ccc(OCCCCN3CCN(c4cccc(Cl)c4Cl)CC3)cc2N1` [ARIPIPRAZOLE] has an MED [7] greater than 2.5 mg/kg.

Molecule `Cn1ccc2cc3c(cc21)CCN3C(=O)Nc1cccnc1` has a pKb [8] of 8.39.

For `Cc1cccc(S(=O)(=O)N[C@H]2CCN(CCCc3noc4cc(F)ccc34)C2)c1`, the Ki [9] was 1.02 nM and the Ki [10] was 12.9 nM.

In the case of `CC1CCN(CC[C@H]2CCCN2S(=O)(=O)c2cccc(O)c2)CC1`, the pKb [11] is reported as 9.55.

Molecule `O=S(=O)(N[C@H]1CCN(CCCc2noc3cc(F)ccc23)C1)c1ccc(F)c(Cl)c1` has a Ki [9] of 6.46 nM and a Ki [10] of 25.7 nM.

With `O=S(=O)(N[C@@H]1CCN(CCCc2noc3cc(F)ccc23)C1)c1ccc(F)c(Cl)c1` the Ki [9] was 5.25 nM and the Ki [10] was 1.45 nM.

With `CN(C)CCCN1c2ccccc2Sc2ccc(Cl)cc21` the pKb [12] was 8.84.

With `Cc1cccc(S(=O)(=O)N[C@@H]2CCN(CCCc3noc4cc(F)ccc34)C2)c1` the Ki [10] was 1.7 nM.

`COC(=O)[C@H]1[C@H]2C[C@H]3c4[nH]c5ccccc5c4CCN3C[C@H]2CC[C@@H]1O` [RAUWOLSCINE] showed a pKb [13] of 8.62.
